The term T/C denotes the result in the treated group divided by that in the control group, in per cent.

Values after ≈ are worked out from the molar mass of the structure shown.

For one assay, the system named is KB. Kind of assay: Cytotoxicity against human KB cells. The conditions noted are these: read-out: ED50 (the source's name). The assay is classed as functional.
The next assay relates to P388. Briefly: In vivo cytotoxicity against mouse P388 cells at 0.4 to 12.5 mg/kg. It is filed as functional. The conditions noted are these: dose mg/kg 0.4-12.5.

As for `COc1cc2cc(c1Cl)NC(=O)C[C@H](OC(=O)[C@H](C)N(C)C(=O)C1C(C)C1C)[C@]1(C)O[C@H]1[C@H](C)[C@@H]1C[C@@](O)(NC(=O)O1)[C@H](OC)/C=C/C=C(\C)C2` (some centres not stated) [NORMAYTANCYPRINE], the EC50 in the assay with KB came out at 0.001 ng/mL (≈ 0.00137 nM). In the assay on P388, this compound came in with a T/C of 145%.

The values above are taken from ChEMBL document CHEMBL1151402, “Normaytancyprine, A Minor Antileukemic Ansa Macrolide From Putterlickia verrucosa” (1982).
